Measured values published in patent publication US5585382A, “Polycyclic and heterocyclic chromophores for bis-imide tumoricidals” (The DuPont Merck Pharmaceutical Company, priority 1995, dated 1996).
Like-named read-outs stand apart in the source and are kept apart here.

Assays:
[1] = tested on: DLD-2 human colon tumor; experiment: In vivo human tumor xenograft DLD-2 in nude mice; details: for Tumor Growth Inhibition activity against DLD-2 (in words): NCI criteria
Source text: (§1) The DLD-2 human colon tumor and MX-1 human mammary carcinoma, were originally obtained from a surgically-removed primary colon carcinoma or breast tumor respectively. The human tumor lines were maintained by serial passage in athymic nude mice. The MX-1 human mammary carcinoma is an established tumor used by the NCI. The DLD-2 human colon tumor has been well characterized. (Dexter, D. L.; Spremulli, E. N.; Matook, G. M.; Diamond, I.; Calabresi, P. Cancer Research 1982, 42, 5010; Dexter, D. L.; Barbosa, J. A.; Calabresi, P. Cancer Research 1979, 39, 1020.)
(§2) The mice used in these experiments were outbred Swiss mice or CD-1 mice bearing the nude (nu/nu) gene. On Day 0, male and female mice weighing 22-30 g are inoculated with 0.2 mL of a 25% tumor mince. This mince is prepared by mincing fresh tumor tissue, grown subcutaneously in passage mice, in sterile physiological saline. Palpable tumors weighing approximately 50 mg appear in the mice within 7-10 days after inoculation. The mice are pair matched by tumor weight and sex into groups of ten each and the test compounds and vehicle control are administered intravenously (i.v.) once daily for nine consecutive days. A >20% decrease in body weight on Day 5 following compound administration is considered an indication of toxicity. Tumor measurements and body weights are recorded once a week. Fifteen to eighteen days after the initial injection the mice are weighed, sacrificed, and the tumors excised and weighed.
(§3) The efficacy of the test compounds is determined by the extent of tumor growth inhibition in treated versus vehicle-treated control mice. Initial tumor weights (mg) are calculated from the tumor dimensions (mm) obtained from caliper measurements, using the formula for a prolate ellipsoid (mg of tumor weight=(length×width^2)/2). Net tumor weights are calculated for each of the treated groups and the vehicle-treated control group by subtracting the initial tumor weight from the final tumor weight (Day 15-18). Results are expressed as a percentage decrease relative to the mean tumor weight for the control vehicle-treated group.
(§4) Tumor Growth Inhibition= [formula]
(§5) The evaluation criteria of the National Cancer Institute for activity in in vivo cancer models were used. Tumor growth inhibition of 58-89% against the various xenografts is considered moderate activity, and inhibition of ≥90% is considered good to excellent activity. Actual tumor regressions (IR=incomplete regression; FR=full regression) indicate excellent to outstanding activity.

[2] = tested on: MX-1 human mammary carcinoma; experiment: In vivo human tumor xenograft MX-1 in nude mice; details: for Tumor Growth Inhibition activity against MX-1 (in words): NCI criteria
Source text: as §1, §2, §3, §4, §5

[3] = tested on: Clone A human colon cancer cells; experiment: In vitro growth inhibition of Clone A cells (MTT, 72 hr); type: cell-based; details: read-out: Clone A IC50
In short: (§6)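 Cells seeded on day 0 (1×10^3 L1210 or 8×10^2 Clone A per well), graded compound concentrations added on day 1, then 72 hr at 37 °C. MTT 4 h, formazan dissolved in acidic isopropanol, read at 570/630 nm; IC50 from curve fit as half-maximal inhibition of population doublings, eight replicates.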

[4] = tested on: Murine leukemia L1210 cells; experiment: In vitro growth inhibition of L1210 cells (MTT, 72 hr); type: cell-based; details: Mus musculus, read-out: L1210 IC50
In short: as §6

[5] = Solubility in water
[6] = Mus musculus, DLD2, iv, 216 h, read-out: DLD-2 percent tumor growth inhibition
[7] = i.v. once daily for nine days, nude mice
[8] = Mus musculus, iv, 216 h, read-out: MX-1 tumor regressions, IR=incomplete regression
[9] = Mus musculus, DLD2, iv, 216 h, 12.5 mg/kg, i.v. once daily for nine days, nude mice, read-out: DLD-2 percent tumor growth inhibition

SMILES	Tumor Growth Inhibition activity against DLD-2 (in words) [1, 7]	Tumor Growth Inhibition activity against MX-1 (in words) [2, 7]	IC50 ([3]; 72 h) [µg/mL]	IC50 ([4]; L1210, 72 h) [µg/mL]	solubility [5] [µg/mL]	IC50 ([3]; Clone A cells, 72 hr, MTT) [µg/mL]	IC50 ([4]; L1210 cells, 72 hr, MTT) [µg/mL]	other results
CS(=O)(=O)O.O=C1c2cccc3cc([N+](=O)[O-])cc(c23)C(=O)N1CCCCNCCCN1C(=O)c2cc([N+](=O)[O-])cc3c2c(cc2cccnc23)C1=O [Example 111, 4-[3-(3-Nitro-5-azaphenanthrene-1,10-dicarboximido)propylamino]-1-(3-nitronaphthalene-1,8-dicarboximido)butane Hydromethanesulfonate]	moderate to excellent	moderate to excellent	0.002	0.003	240			DLD-2 tumor regressions, IR=incomplete regression ([1]; 18 mg/kg, i.v. once daily for nine days, nude mice): 2/7; inhibition in vivo at 18 mg/kg [1, 6]: 99%; MX-1 tumor regressions, FR=full regression ([2]; 20 mg/kg, i.v. once daily for nine days, nude mice): 1/9; inhibition in vivo at 20 mg/kg ([2]; Mus musculus, iv, 216 h, read-out: MX-1 percent tumor growth inhibition): 99%; responders at 20 mg/kg [2, 8]: 77.8%
CS(=O)(=O)O.CS(=O)(=O)O.Nc1cc2c3c(cc4cccnc4c3c1)C(=O)N(CCCNCCCCN1C(=O)c3cccc4cc([N+](=O)[O-])cc(c34)C1=O)C2=O [Example 112, 4-[3-(3-Amino-5-azaphenanthrene-1,10-dicarboximido)propylamino]-1-(3-nitronaphthalene-1,8-dicarboximido)butane Dihydromethanesulfonate]		moderate to excellent			7500	0.007	0.02	inhibition in vivo at 12.5 mg/kg [1, 9]: 48%; inhibition in vivo at 25 mg/kg ([2]; Mus musculus, iv, 216 h, 25 mg/kg, i.v. once daily for nine days, nude mice, read-out: MX-1 percent tumor growth inhibition): 98%; responders at 25 mg/kg ([2]; Mus musculus, iv, 216 h, 25 mg/kg, i.v. once daily for nine days, nude mice, read-out: MX-1 tumor regressions, IR=incomplete regression (converted)): 37.5%
CS(=O)(=O)O.O=C1c2cccc3cc([N+](=O)[O-])cc(c23)C(=O)N1CCCCNCCCN1C(=O)c2cccc3c2c(cc2ncccc23)C1=O [Example 114, 4-[3-(8-Azaphenanthrene-1,10-dicarboximido)propylamino]-1-(3-nitronaphthalene-1,8-dicarboximido)butane Hydromethanesulfonate]	moderate to excellent	moderate to excellent			680	0.001	< 0.01	DLD-2 tumor regressions, IR=incomplete regression ([1]; 12.5 mg/kg, i.v. once daily for nine days, nude mice): 4/8; inhibition in vivo at 12.5 mg/kg [1, 9]: 99%; inhibition in vivo at 12 mg/kg ([2]; Mus musculus, iv, 216 h, 12 mg/kg, i.v. once daily for nine days, nude mice, read-out: MX-1 percent tumor growth inhibition): 98%; responders at 12 mg/kg ([2]; Mus musculus, iv, 216 h, 12 mg/kg, i.v. once daily for nine days, nude mice, read-out: MX-1 tumor regressions, IR=incomplete regression (converted)): 62.5%
CS(=O)(=O)O.O=C1c2cc([N+](=O)[O-])cc3c2c(cc2cccnc23)C(=O)N1CCCCNCCCN1C(=O)c2cc([N+](=O)[O-])cc3c2c(cc2cccnc23)C1=O [Example 5, 4-[3-(3-Nitro-5-azaphenanthrene-1, 10-dicarboximido)propylamino]-1-(3-nitro-5-azaphenanthrene-1, 10-dicarboximido)butane Hydromethanesulfonate]	moderate to excellent		0.013	0.006	60			inhibition in vivo at 10 mg/kg [1, 6]: 82%
CS(=O)(=O)O.CS(=O)(=O)O.C[C@H](CNCCNC[C@@H](C)N1C(=O)c2cc([N+](=O)[O-])cc3c2c(cc2cccnc23)C1=O)N1C(=O)c2cc([N+](=O)[O-])cc3c2c(cc2cccnc23)C1=O [Example 8, (R,R)-1,2-bis-[2-(3-Nitro-5-azaphenanthrene-1,10-dicarboximido)propylamino]ethane Dihydromethanesulfonate]	moderate to excellent	moderate to excellent	0.008	0.03	4000			DLD-2 tumor regressions, IR=incomplete regression ([1]; 10 mg/kg, i.v. once daily for nine days, nude mice): 2/9; inhibition in vivo at 10 mg/kg [1, 6]: 95%; MX-1 tumor regressions, FR=full regression ([2]; 5 mg/kg, i.v. once daily for nine days, nude mice): 2/9; responders at 5 mg/kg [2, 8]: 77.8%
CS(=O)(=O)O.CS(=O)(=O)O.Cc1nc2cc3c4c(cccc4c2[nH]1)C(=O)N(CCCNCCCCN1C(=O)c2cccc4cc([N+](=O)[O-])cc(c24)C1=O)C3=O [Example 140, 4-[3-(2-Methyl-1H-naphth[1,2-d]imidazole-5,6-dicarboximido)propylamino]-1-(3-nitronaphthalene-1,8-dicarboximido)butane Dihydromethanesulfonate]					9000	0.101	0.425	inhibition in vivo at 50 mg/kg ([1]; Mus musculus, DLD2, iv, 216 h, 50 mg/kg, i.v. once daily for nine days, nude mice, read-out: DLD-2 percent tumor growth inhibition): 0%
CS(=O)(=O)O.O=C1c2cc([N+](=O)[O-])cc3c2c(cc2ncccc23)C(=O)N1CCCCNCCCN1C(=O)c2cc([N+](=O)[O-])cc3c2c(cc2ncccc23)C1=O [Example 18, 4-[3-(3-Nitro-8-azaphenanthrene-1,10-dicarboximido)propylamino]-1-(3-nitro-8-azaphenanthrene-1, 10-dicarboximido)butane Hydromethanesulfonate]	moderate to excellent		0.007	0.001	20			inhibition in vivo at 12.5 mg/kg [1, 6]: 84%
CS(=O)(=O)O.CS(=O)(=O)O.C[C@@H](CNCCNC[C@H](C)N1C(=O)c2cc([N+](=O)[O-])cc3c2c(cc2cccnc23)C1=O)N1C(=O)c2cc([N+](=O)[O-])cc3c2c(cc2cccnc23)C1=O [Example 7, (S,S)-1,2-bis-[2-(3-Nitro-5-azaphenanthrene-1,10-dicarboximido)propylamino]ethane Dihydromethanesulfonate]	moderate to excellent		0.028	0.048	680			inhibition in vivo at 12.5 mg/kg [1, 6]: 83%
CS(=O)(=O)O.O=C1c2cccc3c2c(cc2cccnc23)C(=O)N1CCCCNCCCN1C(=O)c2cccc3c2c(cc2cccnc23)C1=O [Example 1, 4-[3-(5-Azaphenanthrene-1,10-dicarboximido)propylamino]-1-(5-azaphenanthrene-1,10-dicarboximido) butane Hydromethanesulfonate]					2300	0.06	0.134	inhibition in vivo at 25 mg/kg ([1]; Mus musculus, DLD2, iv, 216 h, 25 mg/kg, i.v. once daily for nine days, nude mice, read-out: DLD-2 percent tumor growth inhibition): 16%
CS(=O)(=O)O.O=C1c2cc([N+](=O)[O-])cc3c2c(cc2cccnc23)C(=O)N1CCCNCCCN1C(=O)c2cc([N+](=O)[O-])cc3c2c(cc2cccnc23)C1=O [Example 4, 3-[3-(3-Nitro-5-azaphenanthrene-1,10-dicarboximido)propylamino]-1-(3-nitro-5-azaphenanthrene-1, 10-dicarboximido)propane Hydromethanesulfonate]			0.005	0.011	450			inhibition in vivo at 10 mg/kg [1, 6]: 57%
O=C1c2cc([N+](=O)[O-])cc3c2c(cc2cccnc23)C(=O)N1CCNCCN1C(=O)c2cc([N+](=O)[O-])cc3c2c(cc2cccnc23)C1=O [Example 2, 2-[3-(3-Nitro-5-azaphenanthrene-1,10-dicarboximido)ethylamino]-1-(3-nitro-5-azaphenanthrene-1, 10-dicarboximido)ethane Hydromethanesulfonate]					10	0.044	0.02	inhibition in vivo at 12.5 mg/kg [1, 9]: 0%
